# Columns and labels:
# [1] = system: human epidermal keratinocytes; experiment: microarray analysis of differential gene expression in keratinocytes; settings: for number of genes downregulated / number of genes upregulated: 24 h
# Experimental: (§1) Normal primary adult human keratinocytes derived from a donor were purchased from PromoCell (Heidelberg, Germany) and cultured in keratinocytes growth medium (Epilife+EDGS, Thermo Fisher Scientific, NY, USA). Keratinocytes cultures were maintained at 37° C. with 5% CO2 and ˜95% humidity.
# Normal primary human keratinocytes were seeded in 6-well plates and incubated for 24 h. Cells were then washed in PBS (Thermo Fisher Scientific) and reincubated for 24 more hours in the presence of RGN1518 and RGN1538 (each at two different concentrations), vehicle control, or positive control. Following treatment, the cells were washed with PBS, collected and stored frozen at −80° C. before RNA extraction.
# RNA was extracted using a Qiagen RNeasy kit (Qiagen, CA, USA) according to manufacturer's protocol.
# 18 vials containing RNA isolated from human epidermal keratinocytes and 18 vials containing RNA isolated from human fibroblasts were shipped to Thermo Fisher Scientific, Advanced BioMedical Laboratories (Cinnaminson, N.J.) on dry ice for Affymetrix Human Clariom D array processing.
# The differential gene expression was obtained using a threshold of 0.05 for statistical significance (p-value) and a log fold change of expression with absolute value of at least 1. Gene expression was further analysed using Differential Expression Analysis and Pathway Analysis iPathwayGuide) by Advaita Bioinformatics Services (Plymouth, Mich.) in the context of pathways obtained from the Kyoto Encyclopedia of Genes and Genomes (KEGG) database (Release 84.0+/10-26, October 17) (Kanehisa et al., 2000; Kanehisa et al., 2002), gene ontologies from the Gene Ontology Consortium database (2017 Nov. 6) (Ashburner et al., 2000; Gene Ontology Consortium, 2001), miRNAs from the miRBase (Release 21) and […] (Targetscan version:Mouse:7.1, Human:7.1) databases (Agarwal et al., 2015; Nam et al., 2014; Griffiths-Jones et al., 2008; Kozomara and Griffiths-Jones, 2014; Friedman et al., 2009; Grimson et al., 2007), and diseases from the KEGG database (Release 84.0+/10-26, October 17) (Kanehisa et al., 2000; Kanehisa et al., 2002). All references are available in the reports for bioinformatics analysis of differential gene expression provided by Advaita Bioinformatics Services at the following link.
# [2] = system: primary human keratinocytes; experiment: cytotoxicity assay (Cell Titer96 Aqueous One) on keratinocytes; format: cell-based; settings: 24 h
# Experimental: as §1
# (§2) Cytotoxicity was evaluated using the Cell Titer96 Aqueous One (Promega, Wis., USA) basic test according to manufacturer's instructions. Cells were seeded at a density of 10,000 cells/well in a 96-well plate and cultured overnight. Treatments with seven doses of compounds were carried out for 24 hours, in triplicates. Colorimetric analysis was performed using an absorbance of 490 nm. Inhibition of viability of more than 20% of the control values was considered cytotoxic.
# The cytotoxicity assay on primary human keratinocytes from adult donor was performed after 24 h of culture in the presence of different concentrations of each compound, as indicated in FIG. 2A and Table 1.
# [3] = stability of active ingredient in cosmetic composition; settings: 40° C., 50° C., −5° C.; two-, four-, six-, eight-, and 12-week time points
# Experimental: Two cosmetic compositions were prepared, one containing lapachol (denoted RGN 1538) and the other containing myrtucommulone C (denoted RGN 1518) as active ingredients, and the stabilities of the active ingredients in these compositions were evaluated.
# human fibroblasts = experiment: microarray analysis of differential gene expression in fibroblasts; format: cell-based
# [4] = system: primary human fibroblasts; experiment: cytotoxicity assay (Cell Titer96 Aqueous One) on fibroblasts; settings: 24 h
# Experimental: Normal human dermal adult fibroblasts derived from a donor of were purchased from CELLnTec (Bern, Switzerland) and grown in DMEM supplemented with 10% FBS (Life Technologies, CA, USA). Fibroblasts cultures were maintained at 37° C. with 5% CO2 and ˜95% humidity.
# as §2
# The cytotoxicity assay on primary human fibroblasts from adult donor was performed after 24 h of culture in the presence of different concentrations of each compound, as indicated in FIG. 2B and Table 2.
# [5] = concentration of 50 (unit not given), 24 h
# [6] = wound healing gene, fibroblasts, 24 h
substance,measurement,setting,value
myrtucommulone C,expression of DNAJB9,[1],upregulated
same,"expression of cell cycle genes PKMYT1, MYC",[1],upregulated
same,number of genes downregulated,[1]; 1.6 μM,1196 genes
same,number of genes upregulated,[1]; 1.6 μM,492 genes
same,number of genes downregulated,"[1]; 3.1 μM, of 24905 genes",1294 genes
same,number of genes upregulated,"[1]; 3.1 μM, of 24905 genes",693 genes
same,expression of cell cycle genes,"[1]; CDK1, PLK1, RB1, CDC25C, CDC25B, MAD2L1, CDKN2B, CCNA2, MAD1L1, TTK, ZBTB17, RBL1, CCNB1, CCNB2, BUB1, CDC20, PTTG1, BUB1B",downregulated
same,expression of genes maintaining structure and activity of the Golgi apparatus,"[1]; COG6, ARFGAP3, IFT20, MGAT4",upregulated
same,expression of genes important for normal differentiation and function of skin,"[1]; FGF2, VEGFA, SERPINB1, CDH4, GDF15",upregulated
same,expression of genes involved in Metabolic Pathways,"[1]; GK, FA2H, ASS1, ACSS2, HK2, PHGDH, CYP1A1, CSGALNACT2",upregulated
same,expression of genes associated with inflammation,"[1]; IL1A, IL6, IL1R2, IL1RL1, IL2RG, TSC22D3",upregulated
same,expression of genes involved in Metabolic Pathways,"[1]; MTHFD1, CYP2J2, RRM2, TYMS",downregulated
same,Avg (% of untreated),[2]; 6.2 μM,80%
same,Avg (% of untreated),[2]; 12.4 μM,44%
same,Avg (% of untreated),[2]; 24.8 μM,43%
same,Avg (% of untreated),[2]; 50 μM,47%
same,Avg (% of untreated),[2]; 100 μM,43%
same,Avg (% of untreated),[2]; 200 μM,54%
same,Avg (% of untreated),[2]; 400 μM,51%
same,concentrations that showed no cytotoxicity,[2]; unit not given,up to 6.2
same,acceptable degradation of active compound (20% or 80% of original),[3],met this criteria
same,"vascular wound healing, spreading of epidermal cells and vasculature development (gene profile)",human fibroblasts,activation
same,number of genes downregulated,"human fibroblasts; 25 μM, 24 h, of 24905 genes",430 genes
same,number of genes upregulated,"human fibroblasts; 25 μM, 24 h, of 24905 genes",986 genes
same,number of genes downregulated,"human fibroblasts; 62 μM, 24 h",76 genes
same,number of genes upregulated,"human fibroblasts; 62 μM, 24 h",53 genes
same,gene expression of common skin targets,"human fibroblasts; CRELD1, NGF, GLRX2, CSGALNACT2, VEGFA, ITGA2, PPARG, EPGN",upregulated
same,number of genes involved in wound healing downregulated,human fibroblasts; at both doses,24 genes
same,number of genes involved in wound healing upregulated,human fibroblasts; at both doses,28 genes
same,"hair cycle, hair follicle morphogenesis and development (biological processes)",human fibroblasts; both concentrations,affected
same,number of genes downregulated,human fibroblasts; [5],468 genes
same,number of genes upregulated,human fibroblasts; [5],821 genes
same,Log Fc ACTB,human fibroblasts; [6],−1.055
same,Log Fc ADAM17,human fibroblasts; [6],1.323
same,Log Fc AJUBA,human fibroblasts; [6],−1.145
same,Log Fc CARMIL1,human fibroblasts; [6],−1.177
same,Log Fc DGKE,human fibroblasts; [6],1.432
same,Log Fc EDN1,human fibroblasts; [6],−1.404
same,Log Fc EREG,human fibroblasts; [6],2.169
same,Log Fc F2RL2,human fibroblasts; [6],1.038
same,Log Fc F3,human fibroblasts; [6],−1.039
same,Log Fc FGF10,human fibroblasts; [6],−1.313
same,Log Fc FGFR1OP2,human fibroblasts; [6],1.213
same,Log Fc GATA6,human fibroblasts; [6],−1.081
same,Log Fc GSN,human fibroblasts; [6],−1.041
same,Log Fc HBEGF,human fibroblasts; [6],1.225
same,Log Fc HIST1H3G,human fibroblasts; [6],−2.339
same,Log Fc HIST2H3A,human fibroblasts; [6],−1.285
same,Log Fc HMOX1,human fibroblasts; [6],1.346
same,Log Fc IFRD1,human fibroblasts; [6],1.072
same,Log Fc IL6,human fibroblasts; [6],2.578
same,Log Fc IL24,human fibroblasts; [6],1.179
same,Log Fc IRF1,human fibroblasts; [6],1.27
same,Log Fc ITGA2,human fibroblasts; [6],2.425
same,Log Fc ITGB3,human fibroblasts; [6],2.051
same,Log Fc ITPR1,human fibroblasts; [6],1.812
same,Log Fc LBH,human fibroblasts; [6],−1.524
same,Log Fc MAFK,human fibroblasts; [6],1.267
same,Log Fc MERTK,human fibroblasts; [6],1.107
same,Log Fc MIR199A1,human fibroblasts; [6],2.142
same,Log Fc MIR221,human fibroblasts; [6],1.648
same,Log Fc MYLK,human fibroblasts; [6],−1.62
same,Log Fc NDNF,human fibroblasts; [6],1.132
same,Log Fc NOV,human fibroblasts; [6],−1.524
same,Log Fc PDGFD,human fibroblasts; [6],−1.782
same,Log Fc PDPN,human fibroblasts; [6],1.265
same,Log Fc PLAUR,human fibroblasts; [6],1.077
same,Log Fc PLET1,human fibroblasts; [6],1.412
same,Log Fc PLPP3,human fibroblasts; [6],−1.23
same,Log Fc RAB27A,human fibroblasts; [6],1.228
same,Log Fc SMAD3,human fibroblasts; [6],−1.102
same,Log Fc SYT7,human fibroblasts; [6],1.079
same,Log Fc TFPI2,human fibroblasts; [6],2.549
same,Log Fc TGFBR2,human fibroblasts; [6],−1.067
same,Log Fc THBD,human fibroblasts; [6],4.119
same,Log Fc THBS1,human fibroblasts; [6],−1.287
same,Log Fc TLN1,human fibroblasts; [6],−1.13
same,Log Fc TMEFF2,human fibroblasts; [6],−1.526
same,Log Fc TNFAIP3,human fibroblasts; [6],2.328
same,Log Fc TPM1,human fibroblasts; [6],−1.209
same,Log Fc TRPC6,human fibroblasts; [6],−2.444
same,Log Fc UBASH3B,human fibroblasts; [6],1.546
same,Log Fc WNT5A,human fibroblasts; [6],−1.732
same,Avg (% of untreated),[4]; 6.2 μM,97%
same,Avg (% of untreated),[4]; 12.4 μM,94%
same,Avg (% of untreated),[4]; 24.8 μM,90%
same,Avg (% of untreated),[4]; 50 μM,88%
same,Avg (% of untreated),[4]; 100 μM,74%
same,Avg (% of untreated),[4]; 200 μM,72%
same,Avg (% of untreated),[4]; 400 μM,54%
same,concentrations that showed no cytotoxicity,[4]; unit not given,up to 50

# Reference: patent US11013673B2, “Cosmetic compositions containing quinones and their topical use on skin and hair” (Repairogen Corp, priority 2016, dated 2021)
